This note sets out measurements from ChEMBL document CHEMBL1201862, “PubChem BioAssay data set” (2004).

By GI50 is commonly meant the concentration at which growth is held to half of that of the control.

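Five concentrations, 48 hours, 96-well plates. GI50 marks 50% less growth.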 Activity calls are given as the source filed them. Rule as the data show it: active = GI50 up to about 1.1 µM and inactive = higher.

What all share (assay): DTP human tumour cell line panel, 48 h
Assay [1] has as its system SNB-75.
Assay [2] relates to LOX IMVI.
In assay [3] the test system is HOP-62.
In assay [4] the test system is M14.
The subject of assay [5] is DMS-273.
The test system of assay [6] is 786-0.
For assay [7], the system named is SF-539.
The test system of assay [8] is OVCAR-3.
Assay [9] deals with MOLT-4.
For assay [10], the system named is HT-29.
Assay [11] deals with NCI-H226.
The subject of assay [12] is HL-60.
Assay [13] concerns A498.
Assay [14] deals with HCC 2998.
Assay [15] deals with U-251.
Assay [16] concerns OVCAR-5.
In assay [17] the test system is HOP-92.
In assay [18] the test system is KM12.
Assay [19] concerns UACC-257.
The test system of assay [20] is CAKI-1.

On to `COc1cc2c(cc1O)CCN[C@@]21CS[C@H]2c3c(OC(C)=O)c(C)c4c(c3C(COC1=O)N1C2C2NC(Cc3cc(C)c(OC)c(O)c32)[C@@H]1C#N)OCO4` (some centres undefined), for which the concentration for 50% growth inhibition (GI50) in assay [1], in assay [2], in assay [3], in assay [4], in assay [5] and in assay [6] was < 0.01 µM (active) throughout. Also, the GI50 in [7], in [8], in assay [9], in assay [10], in assay [11] and in assay [12] was < 0.01 µM (active) in each case. For the same molecule, the 50% growth inhibitory concentration (GI50) in assay [13], in assay [14] and in assay [15] was < 0.01 µM (active) throughout.
`NCC1(N2CCOCC2)C2CCCC21CO` (centres undefined): the GI50 in [1], in assay [3], in assay [4], in [5], in assay [6] and in assay [7] was > 100 µM (inactive) in each case. Further, the GI50 in [16], in assay [17], in assay [8], in assay [18], in assay [9] and in assay [10] was > 100 µM (inactive) in each case. Also, the GI50 in assay [19], in [20], in [11], in assay [12], in assay [14] and in assay [15] was > 100 µM (inactive) throughout.
Consider `CC(C)(C)OC(=O)NC1CCCC1=O` (centres undefined), for which the GI50 is 40.9 µM (inactive) in [1]; > 100 µM (inactive) in [2]; > 100 µM (inactive) in assay [3]; > 100 µM (inactive) in assay [4]; > 100 µM (inactive) in assay [5]; > 100 µM (inactive) in [6]. The GI50 in [7], in [16], in assay [17], in [8], in assay [18] and in assay [9] was > 100 µM (inactive) throughout. Besides, the GI50 in [10] is > 100 µM (inactive); in assay [19] it was > 100 µM (inactive); in [20], > 100 µM (inactive); in assay [11], > 100 µM (inactive); in assay [13], 8.3 µM (inactive); in [14], > 100 µM (inactive). Further, the GI50 in [15] was > 100 µM (inactive).
With `O=C1COc2cc3c(cc2N1)SCC(=O)N3`, the GI50 in [1], in assay [3], in assay [4], in assay [5], in [6] and in assay [7] was > 100 µM (inactive) each time. Also, the GI50 in [17], in assay [8], in [18], in assay [9], in assay [10] and in assay [19] was > 100 µM (inactive) each time. Besides, the GI50 in assay [20], in [11], in [12] and in assay [14] was > 100 µM (inactive) each time.
Turning to `COC1=C(C)C(=O)C2=C(C1=O)C1C3CC4=C(C(=O)C(OC)=C(C)C4=O)C(CNC(=O)C(C)=O)N3C(C#N)C(C2)N1C` (centres undefined), the 50% growth inhibitory concentration (GI50) was 0.00519 µM (active) in assay [1]; 0.00129 µM (active) in assay [2]; 0.0215 µM (active) in assay [3]; 0.00417 µM (active) in assay [4]; 0.00432 µM (active) in assay [5]; 0.00383 µM (active) in assay [6]. Moreover, the concentration for 50% growth inhibition (GI50) in assay [7] was 0.00891 µM (active); in [16], 0.0172 µM (active); in assay [17], 0.00442 µM (active); in assay [8], 0.00419 µM (active); in assay [18], 0.00789 µM (active); in assay [9], 0.00838 µM (active). For the same molecule, the GI50 is 0.00388 µM (active) in [10]; 0.00464 µM (active) in assay [19]; 0.00516 µM (active) in [20]; 0.0177 µM (active) in [11]; 0.00328 µM (active) in assay [12]; 0.00629 µM (active) in assay [14]. Also, the 50% growth inhibitory concentration (GI50) in [15] is 0.00811 µM (active).
Turning to `COc1ccc(C2C(C(=O)O)=C(COC(C)=O)Oc3cc4c(cc32)OCO4)c(OC)c1` (centres undefined), the GI50 in [1], in assay [2], in assay [3], in assay [4], in assay [5] and in assay [6] was > 100 µM (inactive) each time. The GI50 is > 100 µM (inactive) in assay [7]; 90.6 µM (inactive) in [17]; > 100 µM (inactive) in [8]; > 100 µM (inactive) in assay [9]; > 100 µM (inactive) in [10]; > 100 µM (inactive) in [19]. In addition, the GI50 in [20], in assay [12] and in assay [15] was > 100 µM (inactive) throughout.
With `C/N=C(\N)c1ccc(NC(=N)c2ccc(C(=N)Nc3ccc(/C(N)=N/C)cc3)cc2)cc1`, the GI50 in [1], in assay [2], in [3], in [4], in [5] and in assay [6] was > 100 µM (inactive) in each case. Further, the GI50 was > 100 µM (inactive) in assay [7]; > 100 µM (inactive) in [16]; 76 µM (inactive) in assay [17]; > 100 µM (inactive) in [8]; > 100 µM (inactive) in assay [18]; > 100 µM (inactive) in [9]. Also, the GI50 in assay [10], in assay [19], in [20], in [11], in assay [12] and in assay [15] was > 100 µM (inactive) throughout.
`COC(=O)C(=O)C(C(=O)C(=O)Nc1ccccc1C(N)=O)c1nc2ccc(C(=O)c3ccccc3)cc2nc1O` (centres undefined): the GI50 in [4] is > 100 µM (inactive); in assay [5] it was 62.8 µM (inactive); in [6], > 100 µM (inactive); in assay [7], > 100 µM (inactive); in assay [16], > 100 µM (inactive); in assay [18], 67.3 µM (inactive). Also, the GI50 was 92.5 µM (inactive) in assay [9]; > 100 µM (inactive) in assay [10]; > 100 µM (inactive) in assay [19]; 25.9 µM (inactive) in assay [20]; 92.7 µM (inactive) in [11]; 45 µM (inactive) in [13]. The GI50 in assay [14] and in assay [15] was > 100 µM (inactive) throughout.
